Reference: patent US10076522B2, “Systems and methods for treating bacterial infection” (priority 2016, dated 2018)
Structures can show the parent of a compound that is named as a salt.

Tests used:
physchem [1] = assay: physchem
in vivo = settings: both; for NOAEL at 28 day: marmoset
Protocol: A repeated-dose, 4-week toxicity study was conducted in male and female rats, where single, daily IV bolus doses up to 60 mg/kg were given. […] A 28-day toxicity study was also conducted in male and female marmosets, where iclaprim mesylate was infused intravenously over a 20-minute interval.

[2] = Acute IV toxicity in the mouse; assay type: in vivo
[3] = Acute IV toxicity in rats; settings: rat, in vivo
[4] = pH of a 1% solution in water; assay type: physicochemical
physchem [5] = settings: 20 °C, water
[6] = tested on: acute bacterial skin and skin structure infections (ABSSSIs) suspected or confirmed to be due to Gram-positive pathogens; assay: Phase III REVIVE-1 study, efficacy of fixed dose iclaprim versus vancomycin; assay type: in vivo, human; settings: ITT
Protocol: Subjects were evaluated daily up to ETP, then every 48 to 72 hours through the end of treatment. If the last dose of study drug fell on a day when an evaluation was not planned, an additional evaluation visit was performed on that day (i.e., all EOT evaluations were performed on the last day [+2 days] of drug dose).
The infusion time and duration of treatment for both groups was 2 hours and 5 days (minimum duration) to 14 days (maximum duration), respectively.
The primary endpoint for clinical response (defined as the reduction in lesion size ≥20% compared to baseline) was evaluated in all randomized subjects at ETP (48 to 72 hours post-first dose). […] In addition, clinical outcome was evaluated by the investigator at EOT and TOC (7 to 14 days post EOT). The assessments of clinical outcome was categorized as cure, failure, or indeterminate.
Iclaprim was administered at a dose of 80 mg in 500 mL normal saline, infused over 2 hours q12h (every 12 hours) for 5 to 14 days. For subjects with moderate hepatic impairment (Child-Pugh Class B), iclaprim was administered at a dose of 40 mg in 500 mL normal saline, infused over 2 hours q12h for 5 to 14 days.
Dosing interval was every q12 h, q24 h, q48 h, or dosed by daily level based on creatinine clearance.
The primary efficacy endpoint was the proportion of randomized subjects who achieved an early clinical response (defined as reduction in the lesion size ≥20% compared to baseline) at 48 to 72 hours (ETP) and was evaluated among all randomized subjects (ITT population).
The NI bound were 10%. […] Equivalently, if the lower bound of the two-sided 95% CI for P1-P2 was greater than −0.100 based on the Z test with unpooled variance estimate, NI was concluded.

[7] = Phase III REVIVE-1 study, safety (adverse events); settings: REVIVE-1 safety population
Protocol: All subjects who received any study drug were evaluated for safety on the basis of medical history and physical examinations, reports of clinical AEs, routine electrocardiography, and clinically significant findings from routine liver function tests, serum chemistry, hematology, coagulation, and urinalysis (UA) tests. All adverse events were recorded throughout the study period, up to and including the LFU phone call. While blinded to treatment assignment, the investigator categorized the severity of each AE and the potential for relationship to study drug. Serious AEs (SAEs) include those that were life threatening, led to prolongation of the existing hospitalization, a congenital anomaly/birth defect, or caused persistent or significant disability, incapacity, or death. Treatment-emergent AEs (TEAEs) were defined as those that start or worsen in severity during or after the first dose of study drug administration through end of study.
Safety evaluation included incidence of TEAEs, laboratory test results (including liver function tests), vital signs, ECG results, and physical examination findings. All summaries of safety data was based on the safety population (all treated subjects).
The AE summary tables included subject (patient) counts. Therefore, if a subject experienced more than one episode of a particular AE, the subject was counted only once for that event. If a subject had more than one AE that was coded to the same preferred term, the subject was counted only once for that preferred term. Similarly, if a subject had more than one AE within a SOC, the subject was counted only once in that SOC.

[8] = in vivo, iv; cited from earlier work
[9] = human, in vivo

COc1cc(Cc2cnc(N)nc2N)c2c(c1OC)OC(C1CC1)C=C2 (racemic) [iclaprim mesylate, 5-[(2RS)-2-cyclopropyl-7,8-dimethoxy-2Hchromen-5-ylmethyl] pyrimidine-2,4-diamine methanesulfonate]
pKa (physchem [1]): 7.2
NOAEL at 28 day (in vivo): 3.9 mg/kg/day
NOAEL at 28 day (in vivo; iv): 30 mg/kg/day
dosage with histopathological changes at the injection sites (in vivo; rat, iv, 4 week): ≥ 10 mg/kg/day
NOAEL at 4 week (in vivo; rat, iv, HED of NOAEL): 3.9 mg/kg/day
NOAEL at 4 week (in vivo; rat, iv, NOAEL): > 30 mg/kg/day
HED of lowest lethal IV dose [2]: 6.1 mg/kg
lowest lethal IV dose [2]: 75 mg/kg
LD50 ([3]; female rats): > 200 mg/kg
LD50 ([3]; male rats): 150 to 200 mg/kg
pH value of a 1% solution in water [4]: 4.2
solubility (physchem [5]): ~10000 µg/mL

CN[C@H](CC(C)C)C(=O)N[C@H]1C(=O)N[C@@H](CC(N)=O)C(=O)N[C@H]2C(=O)N[C@H]3C(=O)N[C@H](C(=O)N[C@H](C(=O)O)c4cc(O)cc(O)c4-c4cc3ccc4O)[C@H](O)c3ccc(c(Cl)c3)Oc3cc2cc(c3O[C@@H]2O[C@H](CO)[C@@H](O)[C@H](O)[C@H]2O[C@H]2C[C@](C)(N)[C@H](O)[C@H](C)O2)Oc2ccc(cc2Cl)[C@H]1O [Vancomycin, vancomycin, reference compound]
Early Clinical Response (ECR), percent of subjects ([6]; ETP (48 to 72 hours)): 81.0%
Clinical cure, number of subjects ([6]; TOC (7 to 14 days after study drug discontinuation)): 261
Clinical cure, percent of subjects ([6]; TOC): 87.0%
Deaths, number of subjects [7]: 1
Deaths, percent of subjects [7]: 0.3%
Study drug related TEAEs, number of subjects [7]: 53
Study drug related TEAEs, percent of subjects [7]: 17.8%
TEAE-related SAEs (Serious AEs), number of subjects [7]: 12
TEAE-related SAEs (Serious AEs), percent of subjects [7]: 4.0%
TEAEs (Treatment Emergent Adverse Events), number of subjects [7]: 128
TEAEs (Treatment Emergent Adverse Events), percent of subjects [7]: 43.1%
TEAEs leading to discontinuation of study drug, number of subjects [7]: 13
TEAEs leading to discontinuation of study drug, percent of subjects [7]: 4.4%

CC[C@H]1OC(=O)[C@H](C)[C@@H](O[C@H]2C[C@@](C)(OC)[C@@H](O)[C@H](C)O2)[C@H](C)[C@@H](O[C@@H]2O[C@H](C)C[C@H](N(C)C)[C@H]2O)[C@](C)(OC)C[C@@H](C)C(=O)[C@H](C)[C@@H](O)[C@]1(C)O [clarithromycin]
QTc prolongation [8]: 3 to 11 ms

CC(=O)NC[C@H]1CN(c2ccc(N3CCOCC3)c(F)c2)C(=O)O1 [linezolid, reference compound]
adverse events related to QTc prolongation [9]: 2 cases
